Source: patent US9045491B2, “Thienyl [3,2-D] pyrimidin-4-one compounds, preparation method, pharmaceutical compositions and use thereof” (SHANGHAI INSTITUTE OF MATERIA MEDICA, CHINESE ACADEMY OF …, priority 2011, dated 2015)
Values joined by “and” are separate entries in the source; they are usually repeats but may differ in a detail not shown here. Equal values may be shown once. “Also recorded” adds a separate entry of the source.

Experiment: Pharmacokinetics of DC291407 and metabolites in rats (LC-MS/MS)
Format: in vivo, Sprague-Dawley (SD) rats
Description: The concentration of metabolite M1 (4071001), metabolite M2 (407002) or metabolite M3 (407003) in plasma was determined by LC-MS/MS method after DC291407 was administrated to the rats through gavage and intravenous injection.
The LC/MS/MS used is triple quadruple LC/MS 6460 from Agilent.
Six healthy male Sprague-Dawley (SD) rats with the weight of 180-220 g were randomly divided into 2 groups. The rats in each group were administrated with the tested compound by gavage or intravenous injection, respectively.
The compound was dissolved in 6.7% DMSO/6.7% Tween/86.6% normal saline.
The rats fasted for 12 h and can drink water ad libitum. 2 h after dosing, the rats were provided with food all together. The time point for collecting blood samples and the sample processing are listed as follows.
Intragastric administration: 0.25, 0.5, 1.0, 2.0, 3.0, 4.0, 6.0, 8.0 and 24 h after administration;
Intravenous administration: 5 min, 0.25, 0.5, 1.0, 2.0, 4.0, 6.0, 8.0 and 24 h after administration. At above time point, 0.3 ml venous blood was taken from retrobulbar venous plexus of the rat and loaded into heparinization tube. After centrifuged at 11000 rpm for 5 min, the plasma was separated and frozen at −20° C. in a refrigerator.

[1] = gavage 20 mg/kg DC291407, average of 3 animals
[2] = gavage 20 mg/kg DC291407, individual animals, 20 mg/kg
[3] = gavage 20 mg/kg DC291407, time 0 h, individual animals, BLQ = below lower quantification
[4] = gavage 20 mg/kg DC291407, time 0.25 h, individual animals, 20 mg/kg
[5] = gavage 20 mg/kg DC291407, time 0.5 h, individual animals, 20 mg/kg
[6] = intravenous injection 10 mg/kg DC291407, average of 3 animals

COC(=O)c1cc2nc(N3CCCC(N)C3)n(Cc3ccccc3C#N)c(=O)c2s1 (stereo not drawn) [DC291407]
concentration of M2 in plasma samples collected within one hour after administration (gavage 20 mg/kg DC291407): below 20 ng/ml
metabolite M3 in plasma (gavage 20 mg/kg DC291407): can not be detected
prototype compound in plasma (gavage 20 mg/kg DC291407): can not be detected
main component in plasma (gavage 20 mg/kg DC291407, 20 mg/kg): mainly contained hydrolysis-metabolite M1; also recorded: mainly contained hydrolysis-metabolite Ml
AUC0-t of metabolite M1 [1]: 9860 ng·h/mL
AUC0-∞ of metabolite M1 [1]: 9968 ng·h/mL
Cmax of metabolite M1 [1]: 6039 ng/mL
MRT of metabolite M1 [1]: 2.58 h
Tmax of metabolite M1 [1]: 0.33 h
t1/2 of metabolite M1 [1]: 5.63 h
F, absolute bioavailability (gavage 20 mg/kg DC291407, dose-normalized, based on AUC of metabolite M1): 22.1%
AUC0-t of metabolite M1 [2]: 8191 ng·h/mL and 5758 ng·h/mL and 15633 ng·h/mL
AUC0-∞ of metabolite M1 [2]: 8292 ng·h/mL and 5907 ng·h/mL and 15706 ng·h/mL
Cmax of metabolite M1 [2]: 4435 ng/mL and 3427 ng/mL and 10255 ng/mL
MRT of metabolite M1 [2]: 2.86 h and 3.15 h and 1.74 h
Tmax of metabolite M1 [2]: 0.50 h and 0.25 h
t1/2 of metabolite M1 [2]: 5.37 h and 7.97 h and 3.55 h
Plasma concentration of metabolite M1 [3]: BLQ
Plasma concentration of metabolite M2 [3]: BLQ
Plasma concentration of metabolite M1 (gavage 20 mg/kg DC291407, time 0.25 h, average of 3 animals): 5712 ng/mL
Plasma concentration of metabolite M1 [4]: 3454 ng/mL and 3427 ng/mL and 10255 ng/mL
Plasma concentration of metabolite M2 [4]: 3.87 ng/mL and 3.24 ng/mL and 16.3 ng/mL
Plasma concentration of metabolite M1 (gavage 20 mg/kg DC291407, time 0.5 h, average of 3 animals): 5975 ng/mL
Plasma concentration of metabolite M1 [5]: 4435 ng/mL and 3404 ng/mL and 10087 ng/mL
Plasma concentration of metabolite M2 [5]: 4.79 ng/mL and 3.94 ng/mL and 16.9 ng/mL
Plasma concentration of metabolite M1 (gavage 20 mg/kg DC291407, time 1.0 h, average of 3 animals): 3962 ng/mL
Plasma concentration of metabolite M1 (gavage 20 mg/kg DC291407, time 1.0 h, individual animals, 20 mg/kg): 3326 ng/mL and 1771 ng/mL and 6789 ng/mL
Plasma concentration of metabolite M2 (gavage 20 mg/kg DC291407, time 1.0 h, individual animals, BLQ = below lower quantification, 20 mg/kg): 3.88 ng/mL and BLQ and 10.7 ng/mL
Plasma concentration of metabolite M1 (gavage 20 mg/kg DC291407, time 2.0 h, average of 3 animals): 1117 ng/mL
Plasma concentration of metabolite M1 (gavage 20 mg/kg DC291407, time 2.0 h, individual animals, 20 mg/kg): 690 ng/mL and 1091 ng/mL and 1569 ng/mL
Plasma concentration of metabolite M2 (gavage 20 mg/kg DC291407, time 2.0 h, individual animals, BLQ = below lower quantification): BLQ
Plasma concentration of metabolite M1 (gavage 20 mg/kg DC291407, time 3.0 h, average of 3 animals): 549 ng/mL
Plasma concentration of metabolite M1 (gavage 20 mg/kg DC291407, time 3.0 h, individual animals, 20 mg/kg): 476 ng/mL and 299 ng/mL and 872 ng/mL
Plasma concentration of metabolite M2 (gavage 20 mg/kg DC291407, time 3.0 h, individual animals, BLQ = below lower quantification): BLQ
Plasma concentration of metabolite M1 (gavage 20 mg/kg DC291407, time 4.0 h, average of 3 animals): 390 ng/mL
Plasma concentration of metabolite M1 (gavage 20 mg/kg DC291407, time 4.0 h, individual animals, 20 mg/kg): 500 ng/mL and 105 ng/mL and 565 ng/mL
Plasma concentration of metabolite M2 (gavage 20 mg/kg DC291407, time 4.0 h, individual animals, BLQ = below lower quantification): BLQ
Plasma concentration of metabolite M1 (gavage 20 mg/kg DC291407, time 6.0 h, average of 3 animals): 123 ng/mL
Plasma concentration of metabolite M1 (gavage 20 mg/kg DC291407, time 6.0 h, individual animals, 20 mg/kg): 138 ng/mL and 57.3 ng/mL and 173 ng/mL
Plasma concentration of metabolite M2 (gavage 20 mg/kg DC291407, time 6.0 h, individual animals, BLQ = below lower quantification): BLQ
Plasma concentration of metabolite M1 (gavage 20 mg/kg DC291407, time 8.0 h, average of 3 animals): 68.5 ng/mL
Plasma concentration of metabolite M1 (gavage 20 mg/kg DC291407, time 8.0 h, individual animals, 20 mg/kg): 97.1 ng/mL and 58.9 ng/mL and 49.5 ng/mL
Plasma concentration of metabolite M2 (gavage 20 mg/kg DC291407, time 8.0 h, individual animals, BLQ = below lower quantification): BLQ
Plasma concentration of metabolite M1 (gavage 20 mg/kg DC291407, time 24 h, average of 3 animals): 13.4 ng/mL
Plasma concentration of metabolite M1 (gavage 20 mg/kg DC291407, time 24 h, individual animals, 20 mg/kg): 13.0 ng/mL (2×) and 14.3 ng/mL
Plasma concentration of metabolite M2 (gavage 20 mg/kg DC291407, time 24 h, individual animals, BLQ = below lower quantification): BLQ
main component in plasma (intravenous 10 mg/kg DC291407): mainly contained hydrolysis-metabolite M1
metabolite M2 in plasma (intravenous 10 mg/kg DC291407): relatively low concentration
prototype compound in plasma (intravenous 10 mg/kg DC291407): relatively low concentration
metabolite M3 in plasma (intravenous 10 mg/kg DC291407, 10 mg/kg): can not be detected; also recorded: no metabolite M3 can be detected
AUC0-t of metabolite M1 [6]: 22274 ng·h/mL
AUC0-t of prototype drug [6]: 36.0 ng·h/mL
AUC0-∞ of metabolite M1 [6]: 22517 ng·h/mL
AUC0-∞ of prototype drug [6]: 39.9 ng·h/mL
CL of prototype drug [6]: 260 L/h/kg
Cmax of metabolite M1 [6]: 45028 ng/mL
MRT of metabolite M1 [6]: 1.13 h
MRT of prototype drug [6]: 0.78 h
Tmax of metabolite M1 [6]: 0.083 h
Vss of prototype drug [6]: 210 L/kg
